Entries after “also recorded” stand apart in the source; their conditions may differ.
Columns and labels:
[1] = tested on: rat MCAO ischemia-reperfusion model; assay: MCAO cerebral ischemia-reperfusion model, infarct volume (TTC) and neurology score; format: in vivo; settings: for infarct volume in comparison with vehicle group: 20 μmol/kg i.p., single isoflavone; for infarct volume in comparison with vehicle group / infarct volume: 1.5 h MCAO + 22.5 h reperfusion; for neurological function (neurological deficit score) versus vehicle group: 60 μmol/kg i.p.; for infarct volume: 60 μmol/kg i.p. 30 min before MCAO, vehicle 27.93%±7.1%
From the text: Male adult Sprague-Daweley rats (250 g to 270 g) were obtained from Laboratorial Animal Unit, the University of Hong Kong (HKU) and University of New Mexico (UNM). All animal experiments were approved and regulated by the Committee on the Use of Live Animals in Teaching and Research, HKU and the Laboratory Animal Care and Use Committee, UNM. All efforts were made to minimize animal suffering and to reduce the number of animals used.
Rats were subjected to MCAO to induce cerebral ischemia-reperfusion as previously described (Shen et al., 2006. J Neurochem 96(4):1078-1089). Briefly, rats were anaesthetized by inhalation of 5% isoflurane and maintained with 2% isoflurane in a mixture of 70% N2O and 30% 02. After vessels isolation, a 3/0 monofilament nylon suture (Johnson & Johnson Health Care Systems, Inc., Piscataway, N.J.) was inserted into the external carotid artery and advanced into the internal carotid artery and anterior cerebral artery to occlude the middle cerebral artery. After occlusion for 1.5 hours, the suture was removed to induce reperfusion and maintained for 22.5 hours. After operation, rats were transferred to intensive care incubator in which the temperature was kept at 37° C. until animals woke up completely.
Isoflavones (C, F, and D) were dissolved in dimethyl sulfoxide (DMSO) and diluted with peanut oil to the indicated working solution and intraperitoneally (i.p.) injected to rats 30 minutes before suture insertion for MCAO. The same volume of DMSO and peanut oil were used as vehicle control. In parallel experiments, for mechanistic study, ER antagonist ICI 182780 or PI3K inhibitor LY-294002 was intracerebroventricularly (i.c.v.) injected into the rat lateral ventricle 60 minutes before ischemia onset. Briefly, after anaesthetization, rat was placed on a stereotaxic apparatus and fixed well. A 22-gauge, 12 mm stainless-steel guide cannula was inserted in the left lateral ventricle of the brain. The needle was inserted 4.5 mm deep, 1.5 mm lateral to sagiture and 0.8 mm posterior to bregma to reach the lateral ventricle. Then, ICI 182780 dissolved in DMSO (1 μM) or LY-294002 (10 mM) was slowly injected into lateral ventricle and the needle was kept for at least 30 seconds before removal. The same volume of DMSO was used as a negative control.
After 24 hours of reperfusion, rat brains were isolated and sliced into coronal sections followed by staining with 2,3,5-triphenyltetrazolium chloride (TTC, Sigma-Aldrich, St. Louis, Mo.) at 37° C. for 20 minutes. The ischemic area was evaluated by calculating the hemispheric lesion area with ImageJ software (ImageJ-1.38x; Schneider et al., 2012. Nature methods 9(7):671-675), the relative infarct volume percentage (RIVP) was calculated as RIVP=IVA/TA×100%, IVA was the total infract area of five coronal sections, TA was the total area of five sections.
Neurological function was determined by 9-scale methods containing dysfunctional paw test, postural reflex test and circling test according to a previous report (Bederson et al., 1986. Stroke 17(3):472-476). Each score was summed and represented as a single overall neurological score (0 to 8).

[2] = tested on: primary cultured cortical neurons; assay: OGD/RO-induced cell death in primary cultured cortical neurons, LDH release assay; format: cell-based, rat; settings: 2.5 μM of each isoflavone, pre-treatment, 4 h OGD + 20 h RO
Experimental: Primary cultured cortical neurons were isolated from embryonic Sprague-Dawley rats (E17). After digested by 0.25% trypsin (Invitrogen Corp., Carlsbad, Calif.), cells were collected and suspended in Dulbecco's modified eagle medium (DMEM) containing 10% horse serum, 1% L-glutamine and antibiotic mixture. The resulting single cell suspensions were seeded on 24-well or 6-well plates pre-treated with poly-D-lysine (Sigma-Aldrich, St. Louis, Mo.). After seeded for four hours, medium was replaced with neurobasal medium containing 2% B27, 1% L-glutamine and antibiotics mixture and cell culture was maintained at 37° C. and 5% CO2.
Both oxygen-glucose deprivation plus reoxygenation (OGD/RO) and excitotoxicity experiments were conducted. In OGD/RO experiments, primary cultured neurons were exposed to neurobasal medium without glucose and incubated in a hypoxia chamber (Billups-Rothenberg, Inc., San Diego, Calif.) perfused with a mixed gas containing 95% N2 and 5% CO2 until medium oxygen concentration reached 0.1%, which was monitored with a PA-10A paramagnetic 02 analyzer (Sable Systems International, North Las Vegas, Nev.). After cells were exposed to OGD at 37° C. for four hours, the medium was replaced with normal glucose-containing medium and the plates were put into normal culture condition for 20 hours for reoxygenation. In excitotoxicity experiments, primary cultured neurons were treated with L-glutamate (8 mM, Sigma-Aldrich, St. Louis, Mo.) for six hours. […]
LDH release assay was performed for detecting cell death with Cytotoxicity Detection Kit (Invitrogen Corp., Carlsbad, Calif.). In brief, culture medium was collected and incubated with the reaction mixture for 30 minutes at room temperature (24° C.). […] The optical density of the solution was measured at 490 nm on a microplate reader (Model 3350, Bio-Rad Laboratories, Inc., Hercules, Calif.). The cell death rate was calculated by using the formula: Cell death rate (%)=(Experimental absorbance value−culture medium absorbance value)/(Triton-X 100-treated absorbance value−culture medium absorbance value)×100%.

[3] = AR extract orally administrated to rats; cited from earlier work

| Structure (SMILES) | infarct volume in comparison with vehicle group [1] | neurological function (neurological deficit score) versus vehicle group [1] | infarct volume [1] | effect of ICI 182780 co-treatment on neuroprotective effect on infarct volume ([1]; ICI 182780 i.c.v. 1 h before ischemia, isoflavone i.p. 30 min before ischemia) | reduction in the rate of cell death as compared to vehicle control, OGD/RO [2] | infarct volume in comparison with vehicle group ([1]; listed as daidzein) | fraction metabolized into D and its conjugates [3] |
| --- | --- | --- | --- | --- | --- | --- | --- |
| COc1ccc(-c2coc3cc(O)ccc3c2=O)cc1O [C, calycosin] | no statistical difference; also recorded: no significant effect | much improved neurological function | 10.99±6.07% | partially blocked | 2% | – | – |
| O=c1c(-c2ccc(O)cc2)coc2cc(O)ccc12 [D, daidzein] | no statistical difference | much improved neurological function | 13.84±0.95% | – | 2% | no significant effect | – |
| COc1ccc(-c2coc3cc(O)ccc3c2=O)cc1 [F, formononetin] | no significant effect | – | 10.76±4.21% | – | 2% | – | about 50% |
